Test results published in patent publication US20240034735A1, “NOVEL COMPOUNDS” (AC Immune SA, priority 2022, published 2024).
Read-outs that look alike come from different tables or passages of the source.

System: NLRP3 inflammasome pathway
Assay: NLRP3 inflammasome pathway activation assay (IL-1β release, HTRF)
Assay type: cell-based, Human
Details: for IC50: IL-1β release, PMA-differentiated, LPS-primed cells; for inhibition of IL-1 beta release compared to the equivalent compounds in which Z1=C and Z2=N: human monocyte-like cells, MSU or Nigericin as activators, 8 vs 13, 11 vs 12
Protocol: The following assays were used to determine the inhibitory activity of test compounds on the NLRP3 inflammasome pathway using common stimuli Nigericin (Invivogen) or monosodium urate crystals (MSU) (Invivogen).
Human monocyte-like cells were seeded at 25000 per well in a 384-well plate and were differentiated overnight into macrophages with 10 ng/ml PMA (Phorbol Myristate Acetate). The following day, medium containing 10 ng/ml LPS (Lipopolysaccharide) was added.
For IL-1β quantification, supernatants were analyzed using HTRF kit according to the manufacturer's instructions (Cisbio 62HIL1BPEH), Briefly, in a 384-well ProxiPlate™ microplate, 8 μl of sample was mixed, with 5 μl of Anti-IL1β Cryptate antibody (40×) and Anti-IL1β XL antibody (40×). Then, incubated overnight at RT. Reading was done using an EnVision Reader (PerkinElmer).

[1] = Homo sapiens, stimulation with MSU 200 μg/ml for 3 h, read-out: IC50 Human monocyte-like cells MSU
[2] = Homo sapiens, stimulation with Nigericin 3.75 μM for 3 h, read-out: IC50 Human monocyte-like cells Nigericin
[3] = stimulation with MSU 200 μg/ml for 3 h, read-out: IC50 Human monocyte-like cells MSU
[4] = stimulation with Nigericin 3.75 μM for 3 h, read-out: IC50 Human monocyte-like cells Nigericin

Compound	IC50 [1] [nM]	IC50 [2] [nM]	also measured
CCN1CCC[C@@H](Nc2nnc(-c3ccc(Cl)cc3O)n3ccnc23)C1 [Example 15]	< 5	–	–
C[C@]1(O)C[C@@H](Nc2nnc(-c3ccc(C(F)(F)F)cc3O)n3ccc(F)c23)C1 [Example 10, 2-(8-Fluoro-1-(((1s,3s)-3-hydroxy-3-methylcyclobutyl)amino)pyrrolo[1,2-d][1,2,4]triazin-4-yl)-5-(trifluoromethyl)phenol]	< 5	–	–
CN1CCC[C@@H](Nc2nnc(-c3ccc(C(F)(F)F)cc3O)n3cccc23)C1 [Example 1, (R)-2-(1-((1-methylpiperidin-3-yl)amino)pyrrolo[1,2-d][1,2,4]triazin-4-yl)-5-(trifluoromethyl)phenol]	< 5	< 5	–
CN1CCC[C@@H](Nc2nnc(-c3ccc(Cl)cc3)n3ccnc23)C1 [Example 6, 5-(4-Chlorophenyl)-N-[(3R)-1-methyl-3-piperidyl]imidazo[1,2-d][1,2,4]triazin-8-amine]	20 to 100	–	–
CN1CCC[C@@H](Nc2nnc(-c3ccc(OC(F)F)cc3)n3cccc23)C1 [Example 3, (R)-4-(4-(difluoromethoxy)phenyl)-N-(1-methylpiperidin-3-yl)pyrrolo[1,2-d][1,2,4]triazin-1-amine]	5 to 20	–	–
CN1CC[C@@H](Nc2nnc(-c3ccc(Cl)cc3O)n3ccnc23)C1 [Example 9]	20 to 100	–	–
CN1CCC[C@@H](Nc2nnc(-c3ccc(OC(F)(F)F)cc3)n3cccc23)C1 [Example 4, (R)-N-(1-methylpiperidin-3-yl)-4-(4-(trifluoromethoxy)phenyl)pyrrolo[1,2-d][1,2,4]triazin-1-amine]	20 to 100	20 to 100	–
CN1CCC[C@@H](Nc2nnc(-c3ccc(C(F)(F)F)cc3O)n3nccc23)C1 [Example 2, (R)-2-(4-((1-methylpiperidin-3-yl)amino)pyrazolo[1,5-d][1,2,4]triazin-7-yl)-5-(trifluoromethyl)phenol]	5 to 20	–	–
C[C@]1(O)C[C@@H](Nc2nnc(-c3ccc(C(F)(F)F)cc3O)n3cccc23)C1 [Example 12, 2-(1-(((1s,3s)-3-hydroxy-3-methylcyclobutyl)amino)pyrrolo[1,2-d][1,2,4]triazin-4-yl)-5-(trifluoromethyl)phenol]	–	–	IC50 [3]: 5 to 20 nM; IC50 [4]: 20 to 100 nM
CC1(O)CC(Oc2nnc(-c3ccc(C(F)(F)F)cc3O)n3cccc23)C1 (centres unmarked) [Example 8, 2-(1-((1s,3s)-3-hydroxy-3-methylcyclobutoxy)pyrrolo[1,2-d][1,2,4]triazin-4-yl)-5-(trifluoromethyl)phenol]	< 5	5 to 20	inhibition of IL-1 beta release compared to the equivalent compounds in which Z1=C and Z2=N: significantly increased inhibition
C[C@]1(O)C[C@@H](Nc2nnc(-c3ccc(C(F)(F)F)cc3O)c3cccn23)C1 [Example 11, 2-(4-(((1s,3s)-3-hydroxy-3-methylcyclobutyl)-amino)pyrrolo[1,2-d][1,2,4]triazin-1-yl)-5-(trifluoromethyl)phenol]	< 5	5 to 20	inhibition of IL-1 beta release compared to the equivalent compounds in which Z1=C and Z2=N: significantly increased inhibition
C[C@]1(O)C[C@@H](Oc2nnc(-c3ccc(C(F)(F)F)cc3O)c3cccn23)C1 [Example 13, 2-(4-((1s,3s)-3-Hydroxy-3-methylcyclobutoxy)pyrrolo[1,2-d][1,2,4]triazin-1-yl)-5-(trifluoromethyl)phenol]	–	–	IC50 [3]: 5 to 20 nM; IC50 [4]: 20 to 100 nM
